# Test results published in ChEMBL document CHEMBL1158332, “Saniculoside N from Sanicula europaea L” (J Nat Prod, 1997).
# Test system: Human immunodeficiency virus
# Experiment: Inhibition of HIV reverse transcriptase at 200 ug/ml
row,inhibition [%],Compound
1,20.1,C/C=C(\C)C(=O)O[C@H]1[C@H](O)[C@@]2(CO)[C@H](CC1(C)C)C1=CC[C@@H]3[C@@]4(C)CC[C@H](O[C@@H]5O[C@H](C(=O)OCCC)[C@@H](O)[C@H](O[C@@H]6O[C@H](CO)[C@@H](O[C@@H]7OC[C@@H](O)[C@H](O)[C@H]7O)[C@H](O)[C@H]6O)[C@H]5O)C(C)(C)[C@@H]4CC[C@@]3(C)[C@]1(C)[C@@H](O)[C@H]2O
2,0,O=C(O)/C=C/c1ccc(O)c(O)c1
3,57.4,O=C(/C=C/c1ccc(O)c(O)c1)O[C@H](Cc1ccc(O)c(O)c1)C(=O)O
